The values that follow come from article PMC10713630, “Elucidation of the structural basis for ligand binding and translocation in conserved insect odorant receptor co-receptors” (Nature Communications, 2023).

Several values for one entry are separate records, joined by “and”; a condition that tells them apart may be missing. Equal values may be shown once.

One test has as its target DmelOrco I79A (Drosophila melanogaster, UniProt Q9VNB5, I79A). The test can be described thus: TEVC recording of VUAA1-induced current, DmelOrco I79A in Xenopus oocytes. Details: VUAA1-induced current, i79A: unit not given here. The format is cell-based. The source says:
(§1) All Orco gene sequences were optimized[63] for protein expression in Xenopus laevis oocytes with the GenSmartTM Codon optimization Tool and subcloned into a pGEMHE-derived vector. The wildtype gene of Drosophila melanogaster Orco (DmelOrco) was synthesized by Genscript and subcloned with XmaI/XhoI cloning sites. Site-directed mutagenesis of DmelOrco was done by PCR with the Q5® site directed mutagenesis kit (NEB) using primers optimized with the NEBase Changer online tool and following the supplier’s protocol. After transformation of commercial competent bacteria (XL10 Gold) by standard heat-shock protocol and overnight culture in ampicillin-containing LB plates, positive clones were identified by electrophoretic restriction profile and external sequencing (Genewiz). DNAs of positive clones were amplified with Qiagen MidiPrep Kit and the ORF was fully sequenced. For in vitro transcription, DNAs were linearized with restriction enzyme NotI that cuts a unique site in the 3′ region of the polyA tail. […] DNA and RNA were analyzed by agarose-gel electrophoresis and quantified by spectrophotometry. […]
(§2) Whole cell currents were recorded with the two-electrode voltage-clamp (TEVC) technique with the HiClamp robot (MultiChannel System). […] Data were extracted with M. Vivaudou’s programs[65] and statistically analyzed with Prism 8 (Graphpad).

In another test the target is DmelOrco L141V (Drosophila melanogaster, UniProt Q9VNB5, L141V). Kind of test: TEVC recording of VUAA1-induced current, DmelOrco L141V in Xenopus oocytes. The format is cell-based. Conditions: 500 µM VUAA1, TEVC.
Text: as §1, with “sequenced.” for “sequenced. For in vitro transcription, DNAs were linearized with restriction enzyme NotI that cuts a unique site in the 3′ region of the polyA tail.”
(§3) Whole cell currents were recorded with the two-electrode voltage-clamp (TEVC) technique with the HiClamp robot (MultiChannel System). […] Data were extracted with M. Vivaudou’s programs[65] and statistically analyzed with Prism 8 (Graphpad). […]
100 by 500 µM of the ligand VUAA1 and measured by TEVC recordings on DmelOrco WT and mutants […]

A further test has as its target DmelOrco Y400S (Drosophila melanogaster, UniProt Q9VNB5, Y400S). The test can be described thus: TEVC recording of VUAA1-induced current, DmelOrco Y400S in Xenopus oocytes. The format is cell-based. Conditions: 500 µM VUAA1, TEVC.
Text: as §1, §2

In the next test the test system is MhraOR5. Details: method as in PMID 34349260. As to conditions: cited from earlier work.
Another test addresses DmelOrco M210A (Drosophila melanogaster, UniProt Q9VNB5, M210A). Kind of test: TEVC recording of VUAA1-induced current, DmelOrco M210A in Xenopus oocytes. The format is cell-based. As to conditions: 500 µM VUAA1, TEVC.
Text: as §1, §2

In a further test the test system is AalbOrco. Kind of test: TEVC recording of VUAA1-induced current, AalbOrco in Xenopus oocytes. The format is cell-based, Aedes albopictus. Conditions: 500 µM VUAA1, TEVC, each value one oocyte, Fig.S1c source data.
Text: as §1, with “sequenced.” for “sequenced. For in vitro transcription, DNAs were linearized with restriction enzyme NotI that cuts a unique site in the 3′ region of the polyA tail.”
as §3
37 from different species expressed in Xenopus oocytes and recorded by TEVC. […]

The target of another test is DmelOrco V206A (Drosophila melanogaster, UniProt Q9VNB5, V206A). Kind of test: TEVC recording of VUAA1-induced current, DmelOrco V206A in Xenopus oocytes. The format is cell-based. Further details: VUAA1-induced current, V206A: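 current amplitude in µA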.
Text: as §1, §2

The target of another test is DmelOrco S146W (Drosophila melanogaster, UniProt Q9VNB5, S146W). Kind of test: TEVC recording of VUAA1-induced current, DmelOrco S146W in Xenopus oocytes. The format is cell-based. As to conditions: 500 µM VUAA1, TEVC.
Text: as §1, §2

For a further test, the target named is DmelOrco Y397F (Drosophila melanogaster, UniProt Q9VNB5, Y397F). The test can be described thus: TEVC recording of VUAA1-induced current, DmelOrco Y397F in Xenopus oocytes. The format is cell-based. Details: VUAA1-induced current, Y397F: unit not given here.
Text: as §1, §2

Another test deals with DmelOrco S146V (Drosophila melanogaster, UniProt Q9VNB5, S146V). The test can be described thus: TEVC recording of VUAA1-induced current, DmelOrco S146V in Xenopus oocytes. The format is cell-based.
Text: All Orco gene sequences were optimized[63] for protein expression in Xenopus laevis oocytes with the GenSmartTM Codon optimization Tool and subcloned into a pGEMHE-derived vector. The wildtype gene of Drosophila melanogaster Orco (DmelOrco) was synthesized by Genscript and subcloned with XmaI/XhoI cloning sites. Site-directed mutagenesis of DmelOrco was done by PCR with the Q5® site directed mutagenesis kit (NEB) using primers optimized with the NEBase Changer online tool and following the supplier’s protocol. After transformation of commercial competent bacteria (XL10 Gold) by standard heat-shock protocol and overnight culture in ampicillin-containing LB plates, positive clones were identified by electrophoretic restriction profile and external sequencing (Genewiz). DNAs of positive clones were amplified with Qiagen MidiPrep Kit and the ORF was fully sequenced. For in vitro transcription, DNAs were linearized with restriction enzyme NotI that cuts a unique site in the 3′ region of the polyA tail. The linearized DNAs were purified by the standard phenol:chloroform extraction method and transcribed into mRNA using the T7 ultra mMessage mMachine kit (Thermo Fisher Scientific). mRNAs were purified with the NucleoSpin RNA plus XS kit (Machery-Nagel). DNA and RNA were analyzed by agarose-gel electrophoresis and quantified by spectrophotometry.
Xenopus laevis oocytes were prepared, as previously described. Briefly, oocytes were defolliculated after surgical retrieval by type 1 A collagenase over 2-3 h under smooth horizontal agitation. They were manually selected and incubated at 19 °C in modified-Barth’s solution (1 mM KCl, 0.82 mM MgSO4, 88 mM NaCl, 2.4 mM NaHCO3, 0.41 mM CaCl2, Ca(NO3)2 0.3 mM, 16 mM HEPES, pH 7.4) supplemented with 100 U mL^−1 of penicillin and streptomycin and 0.1 mg mL^−1 of gentamycin. […]
as §2

The term EC50 denotes the concentration at which the effect is half-maximal.

Sequence of DmelOrco V206A (Q9VNB5 whole entry V206A, the tested form may be a part): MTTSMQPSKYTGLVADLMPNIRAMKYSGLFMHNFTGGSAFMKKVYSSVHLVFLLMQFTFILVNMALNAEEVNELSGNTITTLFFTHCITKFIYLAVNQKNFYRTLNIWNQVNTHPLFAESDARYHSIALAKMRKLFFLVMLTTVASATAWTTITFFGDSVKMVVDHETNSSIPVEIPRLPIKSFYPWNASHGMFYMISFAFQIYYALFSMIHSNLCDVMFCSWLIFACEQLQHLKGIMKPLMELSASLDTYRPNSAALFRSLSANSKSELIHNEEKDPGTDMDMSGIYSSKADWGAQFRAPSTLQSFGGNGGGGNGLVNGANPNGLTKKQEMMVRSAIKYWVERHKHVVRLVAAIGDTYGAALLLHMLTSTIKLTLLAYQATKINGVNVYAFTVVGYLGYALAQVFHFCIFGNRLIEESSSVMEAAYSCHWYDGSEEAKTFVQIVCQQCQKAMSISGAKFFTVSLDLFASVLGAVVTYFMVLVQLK
Sequence of DmelOrco I79A (Q9VNB5 whole entry I79A, the tested form may be a part): as the sequence (Q9VNB5 whole entry V206A, the tested form may be a part) above, with I79A, A206V counted along it
Sequence of DmelOrco S146V (Q9VNB5 whole entry S146V, the tested form may be a part): as the sequence (Q9VNB5 whole entry V206A, the tested form may be a part) above, with S146V, A206V counted along it
Sequence of DmelOrco Y397F (Q9VNB5 whole entry Y397F, the tested form may be a part): as the sequence (Q9VNB5 whole entry V206A, the tested form may be a part) above, with A206V, Y397F counted along it
Sequence of DmelOrco Y400S (Q9VNB5 whole entry Y400S, the tested form may be a part): as the sequence (Q9VNB5 whole entry V206A, the tested form may be a part) above, with A206V, Y400S counted along it
Sequence of DmelOrco L141V (Q9VNB5 whole entry L141V, the tested form may be a part): as the sequence (Q9VNB5 whole entry V206A, the tested form may be a part) above, with L141V, A206V counted along it
Sequence of DmelOrco M210A (Q9VNB5 whole entry M210A, the tested form may be a part): as the sequence (Q9VNB5 whole entry V206A, the tested form may be a part) above, with A206V, M210A counted along it
Sequence of DmelOrco S146W (Q9VNB5 whole entry S146W, the tested form may be a part): as the sequence (Q9VNB5 whole entry V206A, the tested form may be a part) above, with S146W, A206V counted along it

For the compound `CCc1ccc(NC(=O)CSc2nnc(-c3cccnc3)n2CC)cc1` [VUAA1, N-(4-ethylphenyl)−2-((4-ethyl-5-(3-pyridinyl)−4H-1,2,4-triazol-3-yl)thio)acetamide], the “Response to VUAA1 compared with WT” value on DmelOrco I79A (500 µM VUAA1, TEVC, I79A) is recorded as “did not significantly affect the amplitude of activation”; on DmelOrco L141V, “did not induce significant change”; on DmelOrco Y400S, “did not significantly change the response”; on DmelOrco V206A (500 µM VUAA1, TEVC, V206A), “did not significantly affect the amplitude of activation”; on DmelOrco S146W, “significant decrease in the response”; on DmelOrco Y397F (500 µM VUAA1, TEVC, Y397F), “did not significantly change the amplitude of activation”. The “VUAA1-induced current, i79A” value on DmelOrco I79A (Fig.4b, individual oocytes) was 1.26 and 4.71 and 3.65 and 1.07 and 3.06 and 3.49 and 3.19 and 0.68 and 2.72 and 3.85. Moreover, in the test with MhraOR5, the “Activation of MhraOR5” value is recorded as “not by VUAA1”. Besides, the “Current induced by VUAA1 (median)” value at DmelOrco M210A worked out at 5.72 µA; at DmelOrco S146V (500 µM VUAA1, TEVC, S146V), 11.68 µA. In addition, the “Current amplitude induced by 500 µM VUAA1 (single recordings)” value with AalbOrco was 2.82 µA and 1.66 µA. In addition, the “VUAA1-induced current, V206A” value at DmelOrco V206A (Fig.4b, individual oocytes) is 5.13 and 5.19 and 4.77 and 3.78 and 5.39 and 5.08 and 2.86 and 2.36. The “VUAA1-induced current, Y397F” value on DmelOrco Y397F (Fig.4b, individual oocytes) is 14.1 and 7.4 and 4.67 and 7.65 and 5.6 and 7.22 and 3.47 and 4.51 and 1.74 and 9.4 and 9.69 and 15.89. This compound also displayed an EC50 at DmelOrco S146V of 82.2 µM. At DmelOrco S146V (concentration-effect curve of VUAA1, TEVC, S146V), this compound gave an Imax of 6.99 µA.
